Values quoted from earlier work as cited in patent US20160339123A1, “POLYBUTYLACRYLATE-BASED NANOCOMPOSITE PHOTOACOUSTIC IMAGING AGENT AND A PREPARATION METHOD THEREOF” (Wenzhou Institute of Biomaterials and Engineering, priority 2015, published 2016).

Conditions: near infrared region

| SMILES | absorption peak |
| --- | --- |
| CC1(C)C(/C=C/C=C/C=C/C=C2\N(CCCCS(=O)(=O)O)c3ccc4ccccc4c3C2(C)C)=[N+](CCCCS(=O)(=O)[O-])c2ccc3ccccc3c21 [indocyanine green] | ~780 nm |
| CN(C)c1ccc2nc3ccc(=[N+](C)C)cc-3sc2c1 [methylene blue] | ~664 nm |
